Assay results from US20220088016A1, “CANCER TREATMENT USING MULTI-TARGETED KINASE INHIBITOR IN COMBINATION OF PROTEIN KINASE BIOMARKERS” (ZHEJIANG CROWNMAB BIOTECH CO. LTD., priority 2019, published 2022).

Tests used:
[1] = biological target: FGFR1 (Homo sapiens, UniProt P11362); experiment: Kinase profiling; assay type: binding; details: read-out: % Ctrl @ 1000 nM
[2] = biological target: ABL1 (F317I)-phosphorylated (Homo sapiens, UniProt P00519, F317I); experiment: Kinase profiling; assay type: binding; details: read-out: % Ctrl @ 1000 nM
[3] = biological target: RIPK2 (Homo sapiens, UniProt O43353); experiment: Kinase profiling; assay type: binding; details: read-out: % Ctrl @ 1000 nM
[4] = biological target: T1, SAPK4 (h) (Homo sapiens, UniProt O15264); experiment: Kinase IC50 (Eurofins KinaseProfiler); assay type: biochemical
T1 construct: purchased Eurofins
In short: (§1)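 Per standard kinase SOPs, ATP at selected level initiates reactions containing compound, enzyme and substrate, added in that order. IC50 is fitted from activity remaining as percentage of DMSO control.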

[5] = biological target: T2, IKKβ (h) (Homo sapiens, UniProt O14920); experiment: Kinase IC50 (Eurofins KinaseProfiler); assay type: biochemical
T2 construct: purchased Eurofins (KinaseProfiler service)
In short: as §1

[6] = biological target: T3, MuSK (h) (Homo sapiens, UniProt O15146); experiment: Kinase IC50 (Eurofins KinaseProfiler); assay type: biochemical
T3 construct: purchased Eurofins (KinaseProfiler service)
In short: as §1

[7] = biological target: T4, cSRC (h) (Homo sapiens, UniProt P12931); experiment: Kinase IC50 (Eurofins KinaseProfiler); assay type: biochemical
T4 construct: purchased Eurofins (KinaseProfiler service)
In short: as §1

[8] = tested on: FLT3 (ITD, F691L); experiment: Kinase profiling; assay type: binding
[9] = biological target: HASPIN (Homo sapiens, UniProt Q8TF76); experiment: Kinase profiling; assay type: binding; details: read-out: % Ctrl @ 1000 nM
[10] = biological target: KIT-autoinhibited (Homo sapiens, UniProt P10721); experiment: Kinase profiling; assay type: binding; details: read-out: % Ctrl @ 1000 nM
[11] = biological target: LYN (Homo sapiens, UniProt P07948); experiment: Kinase profiling; assay type: binding; details: read-out: % Ctrl @ 1000 nM
[12] = biological target: PKAC-alpha (Homo sapiens, UniProt P17612); experiment: Kinase profiling; assay type: binding; details: read-out: % Ctrl @ 1000 nM
[13] = biological target: MAPKAPK2 (Homo sapiens, UniProt P49137); experiment: Kinase profiling; assay type: binding; details: read-out: % Ctrl @ 1000 nM
[14] = biological target: PIK3C2G (Homo sapiens, UniProt O75747); experiment: Kinase profiling; assay type: binding; details: read-out: % Ctrl @ 1000 nM
[15] = biological target: AKT3 (Homo sapiens, UniProt Q9Y243); experiment: Kinase profiling; assay type: binding; details: read-out: % Ctrl @ 1000 nM
[16] = biological target: SNARK (Homo sapiens, UniProt Q9H093); experiment: Kinase profiling; assay type: binding; details: read-out: % Ctrl @ 1000 nM
[17] = biological target: T5, NEK7 (Homo sapiens, UniProt Q8TDX7); experiment: Kinase profiling; assay type: binding; details: read-out: % Ctrl @ 1000 nM
T5 construct: T7 phage fusion (said for most assays); made in house

[18] = biological target: ITK (Homo sapiens, UniProt Q08881); experiment: Kinase profiling; assay type: binding; details: read-out: % Ctrl @ 1000 nM
[19] = biological target: TXK (Homo sapiens, UniProt P42681); experiment: Kinase profiling; assay type: binding; details: read-out: % Ctrl @ 1000 nM
[20] = biological target: HUNK (Homo sapiens, UniProt P57058); experiment: Kinase profiling; assay type: binding; details: read-out: % Ctrl @ 1000 nM
[21] = biological target: DDR2 (Homo sapiens, UniProt Q16832); experiment: Kinase profiling; assay type: binding; details: read-out: % Ctrl @ 1000 nM
[22] = biological target: WNK1 (Homo sapiens, UniProt Q9H4A3); experiment: Kinase profiling; assay type: binding; details: read-out: % Ctrl @ 1000 nM
[23] = biological target: PKNB (M.tuberculosis) (Mycobacterium tuberculosis, UniProt P9WI81); experiment: Kinase profiling; assay type: binding; details: read-out: % Ctrl @ 1000 nM
[24] = biological target: AKT1 (Homo sapiens, UniProt P31749); experiment: Kinase profiling; assay type: binding; details: read-out: % Ctrl @ 1000 nM
[25] = biological target: LOK (Homo sapiens, UniProt O94804); experiment: Kinase profiling; assay type: binding; details: read-out: % Ctrl @ 1000 nM
[26] = biological target: TSSK1B (Homo sapiens, UniProt Q9BXA7); experiment: Kinase profiling; assay type: binding; details: read-out: % Ctrl @ 1000 nM
[27] = biological target: ERK4 (Homo sapiens, UniProt P31152); experiment: Kinase profiling; assay type: binding; details: read-out: % Ctrl @ 1000 nM
[28] = biological target: GRK1 (Homo sapiens, UniProt Q15835); experiment: Kinase profiling; assay type: binding; details: read-out: % Ctrl @ 1000 nM
[29] = biological target: ERK5 (Homo sapiens, UniProt Q13164); experiment: Kinase profiling; assay type: binding; details: read-out: % Ctrl @ 1000 nM
[30] = biological target: GSK3A (Homo sapiens, UniProt P49840); experiment: Kinase profiling; assay type: binding; details: read-out: % Ctrl @ 1000 nM
[31] = biological target: MAP4K3 (Homo sapiens, UniProt Q8IVH8); experiment: Kinase profiling; assay type: binding; details: read-out: % Ctrl @ 1000 nM
[32] = biological target: DCAMKL2 (Homo sapiens, UniProt Q8N568); experiment: Kinase profiling; assay type: binding; details: read-out: % Ctrl @ 1000 nM
[33] = biological target: TYK2 (JH2domain-pseudokinase) (Homo sapiens, UniProt P29597); experiment: Kinase profiling; assay type: binding; details: read-out: % Ctrl @ 1000 nM
[34] = biological target: TNK1 (Homo sapiens, UniProt Q13470); experiment: Kinase profiling; assay type: binding; details: read-out: % Ctrl @ 1000 nM
[35] = biological target: TRKB (Homo sapiens, UniProt Q16620); experiment: Kinase profiling; assay type: binding; details: read-out: % Ctrl @ 1000 nM
[36] = biological target: PIK3CB (Homo sapiens, UniProt P42338); experiment: Kinase profiling; assay type: binding; details: read-out: % Ctrl @ 1000 nM
[37] = biological target: ALK (Homo sapiens, UniProt Q9UM73); experiment: Kinase profiling; assay type: binding; details: read-out: % Ctrl @ 1000 nM

Sequence of PKNB (M.tuberculosis) (P9WI81 whole entry): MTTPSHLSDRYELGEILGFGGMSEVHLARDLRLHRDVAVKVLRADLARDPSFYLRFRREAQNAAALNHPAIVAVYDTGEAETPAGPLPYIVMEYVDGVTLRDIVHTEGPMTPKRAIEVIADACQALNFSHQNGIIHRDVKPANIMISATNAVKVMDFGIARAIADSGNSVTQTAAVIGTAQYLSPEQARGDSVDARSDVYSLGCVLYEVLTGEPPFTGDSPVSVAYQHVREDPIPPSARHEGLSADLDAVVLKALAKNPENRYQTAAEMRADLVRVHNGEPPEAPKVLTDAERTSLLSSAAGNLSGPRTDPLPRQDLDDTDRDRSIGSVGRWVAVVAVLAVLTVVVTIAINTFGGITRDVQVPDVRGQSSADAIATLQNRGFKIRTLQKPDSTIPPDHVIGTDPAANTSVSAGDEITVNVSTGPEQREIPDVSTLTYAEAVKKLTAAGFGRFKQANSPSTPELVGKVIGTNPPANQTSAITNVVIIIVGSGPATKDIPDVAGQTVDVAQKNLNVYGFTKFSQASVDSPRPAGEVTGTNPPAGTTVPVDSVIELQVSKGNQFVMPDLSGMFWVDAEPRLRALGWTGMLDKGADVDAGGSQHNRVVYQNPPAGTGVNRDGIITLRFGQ
Sequence of HASPIN (Q8TF76 whole entry): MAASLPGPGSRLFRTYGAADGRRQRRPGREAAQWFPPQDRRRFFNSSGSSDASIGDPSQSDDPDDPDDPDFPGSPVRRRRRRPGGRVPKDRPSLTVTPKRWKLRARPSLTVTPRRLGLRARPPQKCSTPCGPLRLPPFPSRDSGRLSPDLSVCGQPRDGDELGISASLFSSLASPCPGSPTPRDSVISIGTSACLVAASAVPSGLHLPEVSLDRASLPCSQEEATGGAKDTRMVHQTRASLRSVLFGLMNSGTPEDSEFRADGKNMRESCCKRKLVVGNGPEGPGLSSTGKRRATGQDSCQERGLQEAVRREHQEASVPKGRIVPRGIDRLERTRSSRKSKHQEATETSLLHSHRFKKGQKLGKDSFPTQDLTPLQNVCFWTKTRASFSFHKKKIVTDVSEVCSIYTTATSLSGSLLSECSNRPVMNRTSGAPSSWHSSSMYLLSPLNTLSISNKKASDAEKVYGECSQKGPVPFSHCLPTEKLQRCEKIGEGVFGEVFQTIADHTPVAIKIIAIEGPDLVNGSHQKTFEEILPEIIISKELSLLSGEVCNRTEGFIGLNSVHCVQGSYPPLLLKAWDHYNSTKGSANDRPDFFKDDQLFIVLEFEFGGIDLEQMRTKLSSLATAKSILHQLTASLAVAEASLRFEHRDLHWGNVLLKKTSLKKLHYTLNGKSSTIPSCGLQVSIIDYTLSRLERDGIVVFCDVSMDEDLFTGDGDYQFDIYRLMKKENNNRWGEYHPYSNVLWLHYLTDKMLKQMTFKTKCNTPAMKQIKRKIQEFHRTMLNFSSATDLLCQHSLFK
Sequence of TXK (P42681 whole entry): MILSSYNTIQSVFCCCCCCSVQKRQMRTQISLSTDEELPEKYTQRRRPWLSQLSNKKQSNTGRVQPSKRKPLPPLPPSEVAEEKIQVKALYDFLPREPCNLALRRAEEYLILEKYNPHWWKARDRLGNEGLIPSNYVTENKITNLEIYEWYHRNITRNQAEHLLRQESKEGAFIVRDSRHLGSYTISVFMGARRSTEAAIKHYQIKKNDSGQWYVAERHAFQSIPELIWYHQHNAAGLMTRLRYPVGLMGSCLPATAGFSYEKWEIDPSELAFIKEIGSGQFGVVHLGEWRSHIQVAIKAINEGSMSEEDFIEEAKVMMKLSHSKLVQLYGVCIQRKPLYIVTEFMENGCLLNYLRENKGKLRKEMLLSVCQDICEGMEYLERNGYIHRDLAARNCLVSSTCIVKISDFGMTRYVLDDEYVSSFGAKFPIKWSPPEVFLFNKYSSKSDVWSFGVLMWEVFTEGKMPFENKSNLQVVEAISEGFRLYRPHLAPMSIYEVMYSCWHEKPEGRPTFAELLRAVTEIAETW
Sequence of ERK5 (Q13164 whole entry): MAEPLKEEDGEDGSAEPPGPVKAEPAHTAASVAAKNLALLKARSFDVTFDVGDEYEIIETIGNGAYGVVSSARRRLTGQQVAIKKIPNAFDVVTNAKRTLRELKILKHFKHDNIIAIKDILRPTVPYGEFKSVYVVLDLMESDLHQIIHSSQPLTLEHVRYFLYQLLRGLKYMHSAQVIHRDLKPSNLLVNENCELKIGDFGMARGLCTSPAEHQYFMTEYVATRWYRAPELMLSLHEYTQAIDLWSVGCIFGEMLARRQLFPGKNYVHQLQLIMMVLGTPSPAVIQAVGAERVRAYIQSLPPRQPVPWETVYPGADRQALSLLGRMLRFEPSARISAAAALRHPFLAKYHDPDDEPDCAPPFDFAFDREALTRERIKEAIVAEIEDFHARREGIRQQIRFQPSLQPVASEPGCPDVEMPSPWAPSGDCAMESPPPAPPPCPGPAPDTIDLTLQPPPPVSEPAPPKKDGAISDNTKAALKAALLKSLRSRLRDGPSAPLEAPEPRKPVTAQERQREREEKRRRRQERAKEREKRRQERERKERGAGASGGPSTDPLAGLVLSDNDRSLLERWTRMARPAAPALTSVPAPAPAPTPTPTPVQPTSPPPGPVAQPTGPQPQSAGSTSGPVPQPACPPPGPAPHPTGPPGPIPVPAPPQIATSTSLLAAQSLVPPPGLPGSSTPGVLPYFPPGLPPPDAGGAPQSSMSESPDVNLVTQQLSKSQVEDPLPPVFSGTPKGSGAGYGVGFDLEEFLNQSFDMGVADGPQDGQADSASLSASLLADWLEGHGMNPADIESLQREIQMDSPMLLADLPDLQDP
Sequence of DDR2 (Q16832 22-855): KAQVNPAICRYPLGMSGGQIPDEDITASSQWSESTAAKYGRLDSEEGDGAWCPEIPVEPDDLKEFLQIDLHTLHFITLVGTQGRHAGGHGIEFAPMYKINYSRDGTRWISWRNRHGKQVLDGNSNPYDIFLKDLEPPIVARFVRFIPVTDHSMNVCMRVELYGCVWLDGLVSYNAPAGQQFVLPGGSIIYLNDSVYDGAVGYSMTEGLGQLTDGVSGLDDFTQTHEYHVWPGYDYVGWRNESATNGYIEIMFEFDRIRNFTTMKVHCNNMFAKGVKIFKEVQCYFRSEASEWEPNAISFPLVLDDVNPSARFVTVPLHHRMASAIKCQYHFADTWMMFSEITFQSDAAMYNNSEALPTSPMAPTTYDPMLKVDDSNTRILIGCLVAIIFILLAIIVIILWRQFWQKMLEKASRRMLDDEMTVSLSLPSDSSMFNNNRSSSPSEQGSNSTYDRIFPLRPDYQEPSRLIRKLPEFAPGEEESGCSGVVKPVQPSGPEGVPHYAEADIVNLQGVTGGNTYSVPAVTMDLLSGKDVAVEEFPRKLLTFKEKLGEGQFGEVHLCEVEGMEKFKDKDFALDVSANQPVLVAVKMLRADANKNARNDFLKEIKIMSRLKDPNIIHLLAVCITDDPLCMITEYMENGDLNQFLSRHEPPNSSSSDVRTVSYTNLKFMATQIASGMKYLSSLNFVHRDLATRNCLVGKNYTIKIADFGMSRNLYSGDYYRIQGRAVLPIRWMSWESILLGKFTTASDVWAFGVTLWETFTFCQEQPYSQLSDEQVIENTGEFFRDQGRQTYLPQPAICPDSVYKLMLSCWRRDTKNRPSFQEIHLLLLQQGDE
Sequence of DCAMKL2 (Q8N568 whole entry): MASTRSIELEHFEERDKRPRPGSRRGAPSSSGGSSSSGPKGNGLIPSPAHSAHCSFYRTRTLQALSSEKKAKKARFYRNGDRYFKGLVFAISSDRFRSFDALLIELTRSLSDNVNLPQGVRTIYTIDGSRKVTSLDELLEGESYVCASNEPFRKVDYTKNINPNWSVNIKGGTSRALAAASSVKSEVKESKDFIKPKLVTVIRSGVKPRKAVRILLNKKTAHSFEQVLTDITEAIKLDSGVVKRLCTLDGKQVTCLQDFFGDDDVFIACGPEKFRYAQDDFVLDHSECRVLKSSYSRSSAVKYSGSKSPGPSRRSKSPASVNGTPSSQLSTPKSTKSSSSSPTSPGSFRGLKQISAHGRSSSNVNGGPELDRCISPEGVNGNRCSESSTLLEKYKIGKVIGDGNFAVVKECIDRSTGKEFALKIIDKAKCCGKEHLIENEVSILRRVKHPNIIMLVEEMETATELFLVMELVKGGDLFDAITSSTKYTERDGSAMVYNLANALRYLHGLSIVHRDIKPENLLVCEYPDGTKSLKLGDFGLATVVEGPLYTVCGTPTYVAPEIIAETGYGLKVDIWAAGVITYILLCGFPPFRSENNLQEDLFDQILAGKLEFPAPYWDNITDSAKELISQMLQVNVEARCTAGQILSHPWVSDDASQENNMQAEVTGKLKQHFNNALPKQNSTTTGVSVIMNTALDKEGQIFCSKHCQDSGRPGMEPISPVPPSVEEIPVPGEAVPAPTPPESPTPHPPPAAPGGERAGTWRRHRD
Sequence of GRK1 (Q15835 whole entry): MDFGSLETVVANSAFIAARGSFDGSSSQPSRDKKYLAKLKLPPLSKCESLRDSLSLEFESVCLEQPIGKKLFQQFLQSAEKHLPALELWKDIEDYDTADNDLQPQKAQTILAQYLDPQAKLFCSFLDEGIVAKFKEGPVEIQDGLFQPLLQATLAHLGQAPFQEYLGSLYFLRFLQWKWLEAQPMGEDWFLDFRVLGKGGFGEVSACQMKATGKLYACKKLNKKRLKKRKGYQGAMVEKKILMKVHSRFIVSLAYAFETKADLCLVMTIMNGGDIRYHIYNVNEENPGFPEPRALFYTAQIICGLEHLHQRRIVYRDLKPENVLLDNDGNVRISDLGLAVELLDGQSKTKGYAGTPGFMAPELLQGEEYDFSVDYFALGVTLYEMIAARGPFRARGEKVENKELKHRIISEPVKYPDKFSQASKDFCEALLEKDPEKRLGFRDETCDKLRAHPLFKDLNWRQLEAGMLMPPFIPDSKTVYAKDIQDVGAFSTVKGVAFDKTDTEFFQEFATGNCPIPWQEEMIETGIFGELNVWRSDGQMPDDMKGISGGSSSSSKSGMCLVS

Work on `Cc1cc(Oc2cc(NC(=O)C3CC3)ncn2)ccc1NC(=O)Nc1ccc(Cl)c(C(F)(F)F)c1` [CBT-102] yielded a remaining activity at 1 µM [1] of 61%, a remaining activity at 1 µM [2] of 95% and a remaining activity at 1 µM [3] of 28%. For the same molecule, the IC50 [4] was 228 nM, the IC50 [5] was greater than 10 µM and the IC50 [6] was 278 nM. The IC50 [7] was 2500 nM, the “% Ctrl @ 1000 nM” value [8] was 86% and the remaining activity at 1 µM [9] was 81%. For the same molecule, the remaining activity at 1 µM [10] was 58%, the remaining activity at 1 µM [11] was 20% and the remaining activity at 1 µM [12] was 97%. It also gave a remaining activity at 1 µM [13] of 100%, a remaining activity at 1 µM [14] of 100% and a remaining activity at 1 µM [15] of 97%. The remaining activity at 1 µM [16] was 100%, the remaining activity at 1 µM [17] was 88% and the remaining activity at 1 µM [18] was 90%. It also gave a remaining activity at 1 µM [19] of 100%, a remaining activity at 1 µM [20] of 68% and a remaining activity at 1 µM [21] of 1.1%. The remaining activity at 1 µM [22] was 87%, the remaining activity at 1 µM [23] was 100% and the remaining activity at 1 µM [24] was 100%. The remaining activity at 1 µM [25] was 0.1%, the remaining activity at 1 µM [26] was 87% and the remaining activity at 1 µM [27] was 91%. For the same molecule, the remaining activity at 1 µM [28] was 100%, the remaining activity at 1 µM [29] was 88% and the remaining activity at 1 µM [30] was 18%. It also gave a remaining activity at 1 µM [31] of 19%, a remaining activity at 1 µM [32] of 95% and a remaining activity at 1 µM [33] of 100%. The remaining activity at 1 µM [34] was 52%, the remaining activity at 1 µM [35] was 71% and the remaining activity at 1 µM [36] was 100%. For the same molecule, the remaining activity at 1 µM [37] was 100%.
